# Like-named read-outs stand apart in the source and are kept apart here.
# Columns and labels:
# Assay in all cases: scanEDGE off-target screen
# Assay type in all cases: binding
# 97 kinases [1] = target: T1, 97 kinases (Homo sapiens, UniProt O00444); settings: read-out: %Ctrl PLK4
# T1 construct: purchased Ambit Biosciences (scanEDGE / KINOMEscan) scanEDGE 97 kinase panel; host or cells: T7 phage in E. coli BL21-derived host; remaining kinases in HEK-293 cells
# 97 kinases [2] = target: T2, 97 kinases (Homo sapiens, UniProt O00750); settings: read-out: %Ctrl PIK3C2B
# T2 construct: purchased Ambit Biosciences (scanEDGE / KINOMEscan) scanEDGE 97 kinase panel; host or cells: T7 phage in E. coli BL21-derived host; remaining kinases in HEK-293 cells
# 97 kinases [3] = target: T3, 97 kinases (Homo sapiens, UniProt O14757); settings: read-out: %Ctrl CHEK1
# T3 construct: purchased Ambit Biosciences (scanEDGE / KINOMEscan) scanEDGE 97 kinase panel; host or cells: T7 phage in E. coli BL21-derived host; remaining kinases in HEK-293 cells
# 97 kinases [4] = target: T4, 97 kinases (Homo sapiens, UniProt O15075); settings: read-out: %Ctrl DCAMKL1
# T4 construct: purchased Ambit Biosciences (scanEDGE / KINOMEscan) scanEDGE 97 kinase panel; host or cells: T7 phage in E. coli BL21-derived host; remaining kinases in HEK-293 cells
# 97 kinases [5] = target: T5, 97 kinases (Homo sapiens, UniProt O15111); settings: read-out: %Ctrl IKK-alpha
# T5 construct: purchased Ambit Biosciences (scanEDGE / KINOMEscan) scanEDGE 97 kinase panel; host or cells: T7 phage in E. coli BL21-derived host; remaining kinases in HEK-293 cells
# 97 kinases [6] = target: T6, 97 kinases (Homo sapiens, UniProt O15530); settings: read-out: %Ctrl PDPK1
# T6 construct: purchased Ambit Biosciences (scanEDGE / KINOMEscan) scanEDGE 97 kinase panel; host or cells: T7 phage in E. coli BL21-derived host; remaining kinases in HEK-293 cells
# 97 kinases [7] = target: T7, 97 kinases (Homo sapiens, UniProt O60674); settings: read-out: %Ctrl JAK2(JH1domain-catalytic)
# T7 construct: purchased Ambit Biosciences (scanEDGE / KINOMEscan) scanEDGE 97 kinase panel; host or cells: T7 phage in E. coli BL21-derived host; remaining kinases in HEK-293 cells
# 97 kinases [8] = target: T8, 97 kinases (Homo sapiens, UniProt P00519)
# T8 construct: purchased Ambit Biosciences (scanEDGE / KINOMEscan) scanEDGE 97 kinase panel; host or cells: T7 phage in E. coli BL21-derived host; remaining kinases in HEK-293 cells
# 97 kinases [9] = target: T9, 97 kinases (Homo sapiens, UniProt P00533); settings: read-out: %Ctrl EGFR
# T9 construct: purchased Ambit Biosciences (scanEDGE / KINOMEscan) scanEDGE 97 kinase panel; host or cells: T7 phage in E. coli BL21-derived host; remaining kinases in HEK-293 cells
# 97 kinases [10] = target: T10, 97 kinases (Homo sapiens, UniProt P06213); settings: read-out: %Ctrl INSR
# T10 construct: purchased Ambit Biosciences (scanEDGE / KINOMEscan) scanEDGE 97 kinase panel; host or cells: T7 phage in E. coli BL21-derived host; remaining kinases in HEK-293 cells
# 97 kinases [11] = target: T11, 97 kinases (Homo sapiens, UniProt P07949); settings: read-out: %Ctrl RET
# T11 construct: purchased Ambit Biosciences (scanEDGE / KINOMEscan) scanEDGE 97 kinase panel; host or cells: T7 phage in E. coli BL21-derived host; remaining kinases in HEK-293 cells
# 97 kinases [12] = target: T12, 97 kinases (Homo sapiens, UniProt P09619); settings: read-out: %Ctrl PDGFRB
# T12 construct: purchased Ambit Biosciences (scanEDGE / KINOMEscan) scanEDGE 97 kinase panel; host or cells: T7 phage in E. coli BL21-derived host; remaining kinases in HEK-293 cells
# 97 kinases [13] = target: T13, 97 kinases (Homo sapiens, UniProt P10721); settings: read-out: %Ctrl KIT
# T13 construct: purchased Ambit Biosciences (scanEDGE / KINOMEscan) scanEDGE 97 kinase panel; host or cells: T7 phage in E. coli BL21-derived host; remaining kinases in HEK-293 cells
# 97 kinases [14] = target: T14, 97 kinases (Homo sapiens, UniProt P12931); settings: read-out: %Ctrl SRC
# T14 construct: purchased Ambit Biosciences (scanEDGE / KINOMEscan) scanEDGE 97 kinase panel; host or cells: T7 phage in E. coli BL21-derived host; remaining kinases in HEK-293 cells
# 97 kinases [15] = target: T15, 97 kinases (Homo sapiens, UniProt P15056); settings: read-out: %Ctrl BRAF
# T15 construct: purchased Ambit Biosciences (scanEDGE / KINOMEscan) scanEDGE 97 kinase panel; host or cells: T7 phage in E. coli BL21-derived host; remaining kinases in HEK-293 cells
# 97 kinases [16] = target: T16, 97 kinases (Homo sapiens, UniProt P24941); settings: read-out: %Ctrl CDK2
# T16 construct: purchased Ambit Biosciences (scanEDGE / KINOMEscan) scanEDGE 97 kinase panel; host or cells: T7 phage in E. coli BL21-derived host; remaining kinases in HEK-293 cells
# 97 kinases [17] = target: T17, 97 kinases (Homo sapiens, UniProt P29597); settings: read-out: %Ctrl TYK2(JH1domain-catalytic)
# T17 construct: purchased Ambit Biosciences (scanEDGE / KINOMEscan) scanEDGE 97 kinase panel; host or cells: T7 phage in E. coli BL21-derived host; remaining kinases in HEK-293 cells
# 97 kinases [18] = target: T18, 97 kinases (Homo sapiens, UniProt P36888); settings: read-out: %Ctrl FLT3
# T18 construct: purchased Ambit Biosciences (scanEDGE / KINOMEscan) scanEDGE 97 kinase panel; host or cells: T7 phage in E. coli BL21-derived host; remaining kinases in HEK-293 cells
# 97 kinases [19] = target: T19, 97 kinases (Homo sapiens, UniProt P42336); settings: read-out: %Ctrl PIK3CA
# T19 construct: purchased Ambit Biosciences (scanEDGE / KINOMEscan) scanEDGE 97 kinase panel; host or cells: T7 phage in E. coli BL21-derived host; remaining kinases in HEK-293 cells
# 97 kinases [20] = target: T20, 97 kinases (Homo sapiens, UniProt P43403); settings: read-out: %Ctrl ZAP70
# T20 construct: purchased Ambit Biosciences (scanEDGE / KINOMEscan) scanEDGE 97 kinase panel; host or cells: T7 phage in E. coli BL21-derived host; remaining kinases in HEK-293 cells
# 97 kinases [21] = target: T21, 97 kinases (Homo sapiens, UniProt P49137); settings: read-out: %Ctrl MAPKAPK2
# T21 construct: purchased Ambit Biosciences (scanEDGE / KINOMEscan) scanEDGE 97 kinase panel; host or cells: T7 phage in E. coli BL21-derived host; remaining kinases in HEK-293 cells
# 97 kinases [22] = target: T22, 97 kinases (Homo sapiens, UniProt P49841); settings: read-out: %Ctrl GSK3B
# T22 construct: purchased Ambit Biosciences (scanEDGE / KINOMEscan) scanEDGE 97 kinase panel; host or cells: T7 phage in E. coli BL21-derived host; remaining kinases in HEK-293 cells
# 97 kinases [23] = target: T23, 97 kinases (Homo sapiens, UniProt P50613); settings: read-out: %Ctrl CDK7
# T23 construct: purchased Ambit Biosciences (scanEDGE / KINOMEscan) scanEDGE 97 kinase panel; host or cells: T7 phage in E. coli BL21-derived host; remaining kinases in HEK-293 cells
# 97 kinases [24] = target: T24, 97 kinases (Homo sapiens, UniProt Q00536); settings: read-out: %Ctrl PCTK1
# T24 construct: purchased Ambit Biosciences (scanEDGE / KINOMEscan) scanEDGE 97 kinase panel; host or cells: T7 phage in E. coli BL21-derived host; remaining kinases in HEK-293 cells
# 97 kinases [25] = target: T25, 97 kinases (Homo sapiens, UniProt Q13873); settings: read-out: %Ctrl BMPR2
# T25 construct: purchased Ambit Biosciences (scanEDGE / KINOMEscan) scanEDGE 97 kinase panel; host or cells: T7 phage in E. coli BL21-derived host; remaining kinases in HEK-293 cells
# 97 kinases [26] = target: T26, 97 kinases (Homo sapiens, UniProt Q15831); settings: read-out: %Ctrl LKB1
# T26 construct: purchased Ambit Biosciences (scanEDGE / KINOMEscan) scanEDGE 97 kinase panel; host or cells: T7 phage in E. coli BL21-derived host; remaining kinases in HEK-293 cells
# 97 kinases [27] = target: T27, 97 kinases (Homo sapiens, UniProt Q9BVS4); settings: read-out: %Ctrl RIOK2
# T27 construct: purchased Ambit Biosciences (scanEDGE / KINOMEscan) scanEDGE 97 kinase panel; host or cells: T7 phage in E. coli BL21-derived host; remaining kinases in HEK-293 cells
# 97 kinases [28] = target: T28, 97 kinases (Homo sapiens, UniProt Q9H4B4); settings: read-out: %Ctrl PLK3
# T28 construct: purchased Ambit Biosciences (scanEDGE / KINOMEscan) scanEDGE 97 kinase panel; host or cells: T7 phage in E. coli BL21-derived host; remaining kinases in HEK-293 cells
# 97 kinases [29] = target: T29, 97 kinases (Homo sapiens, UniProt Q9Y463); settings: read-out: %Ctrl DYRK1B
# T29 construct: purchased Ambit Biosciences (scanEDGE / KINOMEscan) scanEDGE 97 kinase panel; host or cells: T7 phage in E. coli BL21-derived host; remaining kinases in HEK-293 cells
# 97 kinases [30] = target: T30, 97 kinases (Homo sapiens, UniProt Q9Y6R4); settings: read-out: %Ctrl MAP3K4
# T30 construct: purchased Ambit Biosciences (scanEDGE / KINOMEscan) scanEDGE 97 kinase panel; host or cells: T7 phage in E. coli BL21-derived host; remaining kinases in HEK-293 cells
# T8 sequence (P00519 whole entry): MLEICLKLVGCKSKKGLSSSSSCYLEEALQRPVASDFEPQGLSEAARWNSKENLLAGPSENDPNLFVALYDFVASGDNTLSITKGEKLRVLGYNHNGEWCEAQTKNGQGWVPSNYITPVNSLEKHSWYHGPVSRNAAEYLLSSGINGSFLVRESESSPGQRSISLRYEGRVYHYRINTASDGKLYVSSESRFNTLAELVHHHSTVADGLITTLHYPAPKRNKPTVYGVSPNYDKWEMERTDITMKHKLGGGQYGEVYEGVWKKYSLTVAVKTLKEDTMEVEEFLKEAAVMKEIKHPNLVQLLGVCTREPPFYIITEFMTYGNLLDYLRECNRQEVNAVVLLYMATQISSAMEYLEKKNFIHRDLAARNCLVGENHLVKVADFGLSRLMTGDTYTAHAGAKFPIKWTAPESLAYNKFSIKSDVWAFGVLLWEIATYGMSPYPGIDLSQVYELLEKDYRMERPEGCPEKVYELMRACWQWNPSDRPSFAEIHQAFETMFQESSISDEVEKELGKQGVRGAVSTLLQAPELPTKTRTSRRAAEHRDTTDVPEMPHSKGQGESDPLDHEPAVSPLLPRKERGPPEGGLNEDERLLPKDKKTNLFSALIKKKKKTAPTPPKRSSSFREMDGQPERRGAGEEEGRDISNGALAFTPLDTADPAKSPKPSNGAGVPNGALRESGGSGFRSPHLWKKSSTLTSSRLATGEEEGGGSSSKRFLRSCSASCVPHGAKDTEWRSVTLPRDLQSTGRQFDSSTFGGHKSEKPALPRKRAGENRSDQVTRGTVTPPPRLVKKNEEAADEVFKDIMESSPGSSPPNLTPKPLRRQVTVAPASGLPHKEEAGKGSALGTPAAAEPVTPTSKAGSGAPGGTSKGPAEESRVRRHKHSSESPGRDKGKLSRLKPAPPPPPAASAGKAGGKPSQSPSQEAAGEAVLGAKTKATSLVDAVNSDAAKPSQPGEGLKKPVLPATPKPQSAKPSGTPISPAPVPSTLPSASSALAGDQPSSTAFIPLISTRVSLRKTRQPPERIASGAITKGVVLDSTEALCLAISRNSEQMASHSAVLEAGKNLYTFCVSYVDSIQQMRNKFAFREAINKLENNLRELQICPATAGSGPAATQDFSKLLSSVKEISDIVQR
# T10 sequence (P06213 28-1382): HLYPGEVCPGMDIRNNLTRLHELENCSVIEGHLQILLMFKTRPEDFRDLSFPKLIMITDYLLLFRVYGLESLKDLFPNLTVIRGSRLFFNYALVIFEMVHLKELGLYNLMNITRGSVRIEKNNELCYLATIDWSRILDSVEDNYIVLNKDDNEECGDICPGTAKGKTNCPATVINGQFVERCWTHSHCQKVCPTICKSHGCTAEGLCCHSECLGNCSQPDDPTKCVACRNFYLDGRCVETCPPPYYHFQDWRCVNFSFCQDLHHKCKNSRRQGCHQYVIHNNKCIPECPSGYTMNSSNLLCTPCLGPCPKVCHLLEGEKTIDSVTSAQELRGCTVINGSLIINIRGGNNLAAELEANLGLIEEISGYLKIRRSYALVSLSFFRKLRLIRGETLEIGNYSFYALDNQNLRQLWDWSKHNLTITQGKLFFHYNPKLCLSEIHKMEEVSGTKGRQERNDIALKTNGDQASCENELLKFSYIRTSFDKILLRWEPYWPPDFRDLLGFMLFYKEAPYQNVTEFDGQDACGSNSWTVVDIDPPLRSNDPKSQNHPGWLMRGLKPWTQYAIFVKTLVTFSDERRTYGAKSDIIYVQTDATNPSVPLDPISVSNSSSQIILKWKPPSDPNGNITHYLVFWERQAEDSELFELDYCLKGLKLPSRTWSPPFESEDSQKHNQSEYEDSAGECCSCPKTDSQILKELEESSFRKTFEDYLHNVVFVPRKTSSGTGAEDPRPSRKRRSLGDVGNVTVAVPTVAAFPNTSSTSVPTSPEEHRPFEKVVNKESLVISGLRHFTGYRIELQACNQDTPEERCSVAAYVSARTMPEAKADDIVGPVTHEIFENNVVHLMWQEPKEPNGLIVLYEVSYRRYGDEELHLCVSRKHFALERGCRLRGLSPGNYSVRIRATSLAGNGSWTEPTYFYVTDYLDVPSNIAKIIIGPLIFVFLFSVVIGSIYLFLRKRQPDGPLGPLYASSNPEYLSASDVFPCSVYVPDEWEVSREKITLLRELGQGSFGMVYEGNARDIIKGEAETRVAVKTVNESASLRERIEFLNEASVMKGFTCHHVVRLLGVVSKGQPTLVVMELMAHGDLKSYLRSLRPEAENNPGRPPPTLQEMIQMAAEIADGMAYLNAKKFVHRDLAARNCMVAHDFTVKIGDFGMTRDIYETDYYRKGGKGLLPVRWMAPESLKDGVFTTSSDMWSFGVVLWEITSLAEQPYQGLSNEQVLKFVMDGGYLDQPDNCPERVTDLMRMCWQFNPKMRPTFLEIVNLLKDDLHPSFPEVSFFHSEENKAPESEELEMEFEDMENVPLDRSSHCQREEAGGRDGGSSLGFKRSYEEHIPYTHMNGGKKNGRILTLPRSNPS
# T17 sequence (P29597 whole entry): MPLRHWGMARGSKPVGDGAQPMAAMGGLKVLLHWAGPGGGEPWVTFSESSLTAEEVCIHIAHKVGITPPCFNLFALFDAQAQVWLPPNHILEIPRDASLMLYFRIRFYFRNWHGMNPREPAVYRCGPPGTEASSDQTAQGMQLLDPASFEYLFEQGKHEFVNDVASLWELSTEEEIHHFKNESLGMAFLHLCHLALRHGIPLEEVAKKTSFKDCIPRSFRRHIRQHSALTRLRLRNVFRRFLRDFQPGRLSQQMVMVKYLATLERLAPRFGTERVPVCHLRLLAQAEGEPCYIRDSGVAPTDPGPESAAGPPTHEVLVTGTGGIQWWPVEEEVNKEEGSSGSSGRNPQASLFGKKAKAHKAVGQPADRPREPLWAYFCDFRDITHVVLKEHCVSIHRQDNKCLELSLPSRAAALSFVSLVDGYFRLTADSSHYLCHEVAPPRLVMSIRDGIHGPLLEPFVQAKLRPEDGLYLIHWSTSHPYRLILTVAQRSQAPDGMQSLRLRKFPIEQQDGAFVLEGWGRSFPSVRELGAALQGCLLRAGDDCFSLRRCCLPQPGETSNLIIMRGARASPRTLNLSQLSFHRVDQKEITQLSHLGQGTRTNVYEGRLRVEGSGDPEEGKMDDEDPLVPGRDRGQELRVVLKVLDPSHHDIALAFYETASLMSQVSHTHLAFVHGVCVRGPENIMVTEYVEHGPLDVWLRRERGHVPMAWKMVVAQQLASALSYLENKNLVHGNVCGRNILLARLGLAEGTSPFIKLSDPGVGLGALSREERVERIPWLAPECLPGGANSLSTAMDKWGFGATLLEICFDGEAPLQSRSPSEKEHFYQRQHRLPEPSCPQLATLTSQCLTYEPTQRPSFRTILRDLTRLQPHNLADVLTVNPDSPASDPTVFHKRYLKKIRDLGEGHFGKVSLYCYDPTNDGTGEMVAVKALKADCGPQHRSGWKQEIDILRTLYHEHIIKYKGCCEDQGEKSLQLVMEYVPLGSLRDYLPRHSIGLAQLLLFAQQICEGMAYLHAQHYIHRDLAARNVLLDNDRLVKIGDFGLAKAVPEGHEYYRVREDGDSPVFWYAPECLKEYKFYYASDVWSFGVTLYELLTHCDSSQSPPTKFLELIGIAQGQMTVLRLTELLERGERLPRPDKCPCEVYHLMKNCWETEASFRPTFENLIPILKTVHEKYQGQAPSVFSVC
# T5 sequence (O15111 whole entry): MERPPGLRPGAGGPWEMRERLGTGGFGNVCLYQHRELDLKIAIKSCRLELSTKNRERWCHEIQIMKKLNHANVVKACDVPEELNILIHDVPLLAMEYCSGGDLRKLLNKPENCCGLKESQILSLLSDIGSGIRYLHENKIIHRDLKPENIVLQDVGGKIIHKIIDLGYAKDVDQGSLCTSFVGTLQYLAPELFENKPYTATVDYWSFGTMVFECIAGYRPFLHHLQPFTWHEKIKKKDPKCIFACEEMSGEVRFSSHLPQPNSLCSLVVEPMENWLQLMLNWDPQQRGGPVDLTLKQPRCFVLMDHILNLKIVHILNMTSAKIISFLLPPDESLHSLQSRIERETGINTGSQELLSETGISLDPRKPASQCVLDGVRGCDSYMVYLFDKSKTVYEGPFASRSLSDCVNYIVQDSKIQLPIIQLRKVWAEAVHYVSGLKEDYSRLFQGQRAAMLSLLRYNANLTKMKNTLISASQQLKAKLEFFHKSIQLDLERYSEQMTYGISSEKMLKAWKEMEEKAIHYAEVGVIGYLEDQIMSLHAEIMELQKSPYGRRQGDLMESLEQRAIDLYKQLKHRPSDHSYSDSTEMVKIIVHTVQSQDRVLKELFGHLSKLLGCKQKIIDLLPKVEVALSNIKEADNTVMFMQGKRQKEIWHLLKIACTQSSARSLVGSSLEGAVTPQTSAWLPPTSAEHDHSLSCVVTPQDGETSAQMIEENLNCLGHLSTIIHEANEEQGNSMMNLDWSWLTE
# T6 sequence (O15530 whole entry): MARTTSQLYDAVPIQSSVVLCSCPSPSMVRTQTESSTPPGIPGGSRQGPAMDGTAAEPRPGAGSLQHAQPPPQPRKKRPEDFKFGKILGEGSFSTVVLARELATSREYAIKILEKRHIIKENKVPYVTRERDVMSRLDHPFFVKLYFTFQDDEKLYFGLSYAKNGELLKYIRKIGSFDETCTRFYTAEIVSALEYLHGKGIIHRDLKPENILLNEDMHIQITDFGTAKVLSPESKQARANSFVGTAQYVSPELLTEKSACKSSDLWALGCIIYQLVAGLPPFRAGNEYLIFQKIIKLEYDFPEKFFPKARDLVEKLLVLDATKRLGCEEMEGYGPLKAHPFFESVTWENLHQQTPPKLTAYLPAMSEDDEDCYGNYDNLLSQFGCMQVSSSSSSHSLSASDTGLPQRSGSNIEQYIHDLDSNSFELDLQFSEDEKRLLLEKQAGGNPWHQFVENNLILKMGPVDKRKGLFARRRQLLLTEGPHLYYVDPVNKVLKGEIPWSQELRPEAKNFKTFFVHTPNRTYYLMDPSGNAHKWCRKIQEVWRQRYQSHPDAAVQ
structure (smiles),measurement,setting,value
CC(C)(C)CNCCn1c(Sc2cc3c(cc2I)OCO3)nc2c(N)ncnc21 [Compound 85],remaining binding at 10 µM,97 kinases [1],89%
same,remaining binding at 10 µM,97 kinases [2],96%
same,remaining binding at 10 µM,97 kinases [3],100%
same,remaining binding at 10 µM,97 kinases [4],78%
same,remaining binding at 10 µM,97 kinases [5],99%
same,remaining binding at 10 µM,97 kinases [6],77%
same,remaining binding at 10 µM,97 kinases [7],100%
same,remaining binding at 10 µM,97 kinases [8]; read-out: %Ctrl ABL1-nonphosphorylated,50%
same,remaining binding at 10 µM,97 kinases [8]; read-out: %Ctrl ABL1-phosphorylated,70%
same,remaining binding at 10 µM,97 kinases [9],96%
same,remaining binding at 10 µM,97 kinases [10],92%
same,remaining binding at 10 µM,97 kinases [11],100%
same,remaining binding at 10 µM,97 kinases [12],98%
same,remaining binding at 10 µM,97 kinases [13],99%
same,remaining binding at 10 µM,97 kinases [14],100%
same,remaining binding at 10 µM,97 kinases [15],100%
same,remaining binding at 10 µM,97 kinases [16],98%
same,remaining binding at 10 µM,97 kinases [17],99%
same,remaining binding at 10 µM,97 kinases [18],100%
same,remaining binding at 10 µM,97 kinases [19],87%
same,remaining binding at 10 µM,97 kinases [20],78%
same,remaining binding at 10 µM,97 kinases [21],96%
same,remaining binding at 10 µM,97 kinases [22],88%
same,remaining binding at 10 µM,97 kinases [23],79%
same,remaining binding at 10 µM,97 kinases [24],100%
same,remaining binding at 10 µM,97 kinases [25],97%
same,remaining binding at 10 µM,97 kinases [26],81%
same,remaining binding at 10 µM,97 kinases [27],94%
same,remaining binding at 10 µM,97 kinases [28],88%
same,remaining binding at 10 µM,97 kinases [29],36%
same,remaining binding at 10 µM,97 kinases [30],49%
